Source: US20200222400A1, “METHODS FOR THE TREATMENT OF NEUROLOGICAL DISORDERS” (Yumanity Therapeutics, Inc., priority 2019, published 2020)

Experiments:
[1] = tested on: rat cortical neurons transfected with alpha-synuclein A53T; test: Neurite degeneration assay; format: cell-based
Method: Rat primary cortical neurons cultured in 96-well plates (Greiner Bio-One) were co-transfected with a fluorescence reporter plasmid (encoding mKate2) and empty or alpha-synuclein-A53T overexpression plasmids by lipofection at 5-6 div (days in vitro). LIPOFECTAMINE® 2000 transfection reagent (Thermo Fisher) (0.5 μl/well) was diluted in NEUROBASAL® media (Thermo Fisher) and incubated for 5-10 min. The LIPOFECTAMINE®/NEUROBASAL® mixture was then added dropwise to a plasmid cocktail diluted in NEUROBASAL® media, and incubated for approximately 40 min. During this time, conditioned media on the neurons was replaced with media containing 1× kynurenic Acid (Sigma-Aldrich) in NEUROBASAL® media (NBKY). LIPOFECTAMINE®/DNA complex solutions were subsequently added dropwise to neurons in the NBKY media in the 96-well plate. Lipofection was carried out for 30-40 min in a standard cell culture incubator (37° C., 5% CO2). Neurons were then washed with NEUROBASAL® media, and 50% conditioned/50% fresh NEUROBASAL® media containing B-27 supplement and GlutaMax™ (Thermo Fisher) (NBM) was applied to the cultures.
Transfected rat cortical neuron cultures were treated with DMSO or CAY10566 compound 4-6 h post-transfection. […] Neurite lengths of transfected neurons were tracked by an RFP reporter, mKate2, and measured by NeuroTrack™ Software Module (Essen Bioscience). […]

[2] = target: T1, yeast OLE1 (Saccharomyces cerevisiae, UniProt P21147); test: Growth of yeast surviving solely on yeast OLE1; format: cell-based; conditions: percent of DMSO-treated condition
T1 construct: expressed in transfected cells; host or cells: S. cerevisiae ole1Δ strain (W303 pdr1Δ pdr3Δ background), pRS316 plasmid, TDH3 promoter
T1 sequence (P21147 1-510): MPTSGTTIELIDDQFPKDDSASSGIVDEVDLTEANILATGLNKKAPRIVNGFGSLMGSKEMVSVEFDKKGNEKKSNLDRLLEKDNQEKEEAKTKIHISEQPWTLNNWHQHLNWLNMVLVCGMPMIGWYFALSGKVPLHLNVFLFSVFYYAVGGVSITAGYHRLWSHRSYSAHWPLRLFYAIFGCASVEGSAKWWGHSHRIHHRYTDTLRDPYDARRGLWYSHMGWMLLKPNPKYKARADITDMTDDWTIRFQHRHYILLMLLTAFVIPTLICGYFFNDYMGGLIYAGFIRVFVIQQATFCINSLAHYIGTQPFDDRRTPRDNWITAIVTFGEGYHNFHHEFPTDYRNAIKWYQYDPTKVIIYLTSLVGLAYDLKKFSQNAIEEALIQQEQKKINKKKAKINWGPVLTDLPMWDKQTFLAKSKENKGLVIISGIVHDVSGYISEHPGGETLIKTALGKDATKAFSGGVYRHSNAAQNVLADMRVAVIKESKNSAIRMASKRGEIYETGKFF
Excerpt: To generate yeast strains expressing SCD1 or SCD5 as the sole desaturase, the human SCD1 and SCD5 genes were cloned from cDNAs (Harvard PlasmID database Clone ID HsCD00340237 for SCD1 and HsCD00342695 for SCD5) into yeast plasmid pRS316 (ATCC 77145) between the yeast TDH3 promoter and the CYC1 terminator. The coding sequence of yeast OLE1 was also cloned into this plasmid). These clones were then transformed into the ole1Δ strain and plated on CSM-Ura media (CSM lacking uracil) with 2% glucose (w/v) and independent colonies were isolated and amplified.
All compound profiling experiments were performed using the same basic protocol. Different genetic backgrounds (e.g., gene deletions) or conditions (e.g., addition of oleic and palmitoleic acid) were replaced as indicated below.
Compound stocks (10 mM in 100% DMSO) were arrayed into 384 round well, v-bottom polypropylene plates and diluted according to indicated dilution factors. Compound administration was performed in two separate steps. First, 15 μL of CSM-Galactose (induces expression of toxic protein) was dispensed into clear 384 well assay plates using a MULTIDROP™ Combi reagent dispenser. The diluted compound stock plates were then applied to the assay plates using an automated workstation (Perkin Elmer JANUS™) outfitted with a 384 pin tool containing slotted pins that deliver 100 nL of compound. The cultures described above were then diluted to a 2× concentration (0.03 and 0.08 for alpha-synuclein and ApoE, final OD600 of 0.015 and 0.04) in CSM-Galactose. For wild-type and Ole1/SCD1/SCD5 plasmid-containing strains, the 2× cell density was 0.02. In all experiments, 15 μL culture was then dispensed into the pinned assay plate to achieve 30 μL of the 1×OD600 culture and a top drug concentration of […]. For 96-well assays (FIGS. 2A and 2B), compound dilutions in DMSO were generated in 96 well plates and 1 μL was manually pipetted into 96 well clear bottom assay plates.
For experiments using a plasmid-borne copy of Ole1, SCD1, or SCD5 (FIGS. 4B, 7, and 8), media lacking uracil (SX-Ura, where X is glucose, raffinose, or galactose), was used for all steps of the compound profiling protocol to ensure its maintenance throughout the assay.
After yeast delivery, assay plates were incubated under humidified conditions at 30° C. for 24 to 40 h. ApoE4 rescue experiments were stopped at 24 h, aSyn experiments at 40 h, Ole1 at 24 h, and SCD1/SCD5 at 40 h. The growth of yeast was monitored by reading the OD600 of each well using a microplate reader (Perkin Elmer EnVision™). For model rescue experiments, raw data were processed by background subtracting and calculating a fold-change relative to DMSO control [(EXP−0.035)/(DMSO−0.035)—where 0.035 is the OD600 contributed by an empty well containing 30 μL of media alone]. For growth inhibition of wild-type cells, raw data were processed by background subtracting and converting values to a percent of the nontreated condition for that strain [(EXP−0.035)/(DMSO−0.035)×100%].

Cc1nnc(-c2ccc(N3CCC(Oc4cc(F)ccc4Cl)CC3)nn2)o1 [CAY10566]
neurite degeneration at highest concentrations ([1]; 10 nM and 3 nM): complete rescue
neurite degeneration ([1]; titration, tracked every 6 h for 7 d, relative to DMSO): concentration-dependent decrease in neurite degeneration
growth inhibition of yeast expressing OLE1 [2]: resistant
